Where two headings read alike, the source gives them in different places.
How the values were obtained:
[1] = system: ICR mice, acetic acid writhing pain model; test: mice acetic acid writhing pain model; type: in vivo, mouse; settings: for number of appearance of writhing reaction: within 30 min, saline group 49 times
Experimental: Male ICR mice, weighed 22-25 g, were fasted but allowed to drink water freely for 2 h before administration. All ICR mice were weighed and grouped randomly, and the number of animals in each group was >10. […] The test compound was IC-1 (the compound prepared in Example 9), and the administration dosages were 5 mg/kg and 10 mg/kg. […] When concave abdomen, stretched trunk and hind claw, and high buttocks appeared, one number point was recorded. […] After administration, the fewer visceral pains in the mice were, the stronger the analgesic effect of the compound was.

human TRPA1 channel = molecular target: T1, human TRPA1 channel (Homo sapiens, UniProt O75762); test: manual patch clamp detection of TRPA1 inhibitory activity; type: cell-based; settings: for IC50: HEK293 stably expressing human TRPA1, 100 μM AITC, +100 mV
T1 construct: expressed in transfected cells; host or cells: HEK293
T1 sequence (O75762 whole entry): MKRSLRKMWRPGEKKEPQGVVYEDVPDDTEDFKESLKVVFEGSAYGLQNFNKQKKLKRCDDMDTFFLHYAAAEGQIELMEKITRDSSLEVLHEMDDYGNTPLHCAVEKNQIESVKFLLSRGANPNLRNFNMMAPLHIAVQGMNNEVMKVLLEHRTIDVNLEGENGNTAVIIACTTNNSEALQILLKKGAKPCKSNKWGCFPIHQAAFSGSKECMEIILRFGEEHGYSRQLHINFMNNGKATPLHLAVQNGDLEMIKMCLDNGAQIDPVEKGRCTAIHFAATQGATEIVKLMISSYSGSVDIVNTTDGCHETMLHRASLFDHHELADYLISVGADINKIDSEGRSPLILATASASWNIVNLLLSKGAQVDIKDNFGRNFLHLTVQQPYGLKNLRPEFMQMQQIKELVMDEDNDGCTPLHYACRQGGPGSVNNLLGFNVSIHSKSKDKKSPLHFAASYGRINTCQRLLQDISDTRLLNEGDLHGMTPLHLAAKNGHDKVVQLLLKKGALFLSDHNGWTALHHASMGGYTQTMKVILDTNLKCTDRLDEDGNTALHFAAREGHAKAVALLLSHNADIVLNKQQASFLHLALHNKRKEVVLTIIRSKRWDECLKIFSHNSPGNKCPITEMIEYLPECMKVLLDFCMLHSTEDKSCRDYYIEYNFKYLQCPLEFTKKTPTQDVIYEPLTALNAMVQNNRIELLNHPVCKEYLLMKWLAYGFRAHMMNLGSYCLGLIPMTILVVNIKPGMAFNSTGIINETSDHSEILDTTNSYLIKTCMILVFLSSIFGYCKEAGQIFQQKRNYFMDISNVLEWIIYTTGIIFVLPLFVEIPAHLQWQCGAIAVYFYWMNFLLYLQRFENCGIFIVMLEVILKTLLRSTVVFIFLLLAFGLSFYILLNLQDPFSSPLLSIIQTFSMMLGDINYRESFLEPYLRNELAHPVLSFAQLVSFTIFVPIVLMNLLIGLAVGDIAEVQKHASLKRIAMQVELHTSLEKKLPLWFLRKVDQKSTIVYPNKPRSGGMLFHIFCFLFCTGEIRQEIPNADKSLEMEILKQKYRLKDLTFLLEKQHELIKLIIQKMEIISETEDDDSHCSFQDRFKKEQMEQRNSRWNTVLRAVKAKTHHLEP
Experimental: The HEK293 cell line stably expressing human TRPA1 channel was placed in T75 culture flask with DMEM medium containing 15 μg/mL Blasticidin S HCl, 200 μg/mL Hygromycin B and 10% FBS, and cultured in incubator at 37° C. and 5% CO2. When the cell density reached about 80%, the culture medium was removed, the residue was rinsed with phosphate buffered saline (PBS) without calcium and magnesium. 2 mL of trypsin was added to digest for 2 minutes, and 8 mL of culture medium was added to terminate the digestion. The cells were collected to 15 mL centrifuge tube and centrifuged at 800 rpm for 3 min. After the supernatant was removed, an appropriate volume of extracellular fluid was added to re-suspend the cells.
In manual patch clamp detection, HEKA system (Patch Master software) was used together with EPC-10 amplifier to record the whole cell current of TRPA1 stably transfected cell line at room temperature. intracellular fluid formulation for whole cell recording was as follows (mM): 140 CsCl, 10 HEPES, 5 EGTA, 0.1 CaCl2, 1 MgCl2 (pH 7.2, osmotic pressure 295-300 mOsm); Ca^2+-free extracellular fluid formulation for recording was as follows (mM): 140 NaCl, 5 KCl, 0.5 EGTA, 1 MgCl2, 10 Glucose, 10 HEPES (pH 7.4, osmotic pressure 300-310 mOsm). Glass microelectrode resistance used for patch clamp recording was 2-4 MΩ, the sampling frequency was 10 kHz, the filter frequency was 2.9 kHz, the cell clamp was 0 mV, and the voltage stimulation command (channel protocol) was a linear voltage from −100 mV to +100 mV for 300 ms, then restored to 0 mV clamping potential. The recording was performed every 2 s. The hTRPA1 current was induced by 100 μM AITC. To ensure the accuracy of current recording, the series resistance was used for 60% compensation during recording.
Data recording and current amplitude measurement export were completed by Patch Master software. Cells with sealing impedance lower than 500 MΩ, w were not included in the statistics. The original current data were corrected by software for leakage reduction, and the hTRPA1 current amplitude was measured at +100 mV. The compound dose-effect curve and IC50 were fitted and calculated by GraphPad Prism 5.02 (GraphPad Software, San Diego, Calif.).

[2] = system: C57BL/6 mice, formalin pain model; test: mice formalin pain model, dose response (Example 50); type: in vivo, mouse; settings: for Licking time: Phase II, 10-60 min
Experimental: 100 male C57BL/6 mice (9-week aged), were randomly divided into 10 groups to evaluate analgesic activity of two compounds in the mice formalin pain model, and each group had 10 mice. […] Before the start of experiment, the mice were allowed to adapt experimental environment for 72 h with free feeding and drinking water. The test drug was administrated intraperitoneally, and the dosage was as follows:
After administration, the mice were placed in a transparent, ventilated plexiglass cylinder, and 1 h later, 20 μl of 4% formalin solution was injected into the left hind plantar of mice in each group by micro-injector, and claw pain response in mice was recorded in real time by a mini-camera. The time length of licking left claw was used as an indicator of pain response, licking time in 0-10 min (phase I) and 10-60 min (phase II) was observed and recorded, and the statistical analysis was conducted. The half effective dose (ED50) of three compounds was calculated: ED50 referred to the dose of the drug that decreased licking time by half as compared with the blank control group. The smaller the ED50 value was, the lower the effective analgesic dose of the compound was and the stronger the analgesic effect was.

[3] = Pharmacokinetic test in rat; type: in vivo; settings: for bioavailability: oral, calculated on AUC(0-∞); for half-life: read-out: T½ (converted)
Experimental: A certain amount of sample was weighed and dissolved in deionized water to prepare 1 mg/mL of solution. Male SD rats were used as test animals. The dose of single intravenous (IV) injection was 2 mg/kg, and the dose of oral (PO) administration was 10 mg/kg. Each group had three rats. The rats in oral group were fasted for 10-14 hours before administration, and were fed 4 hours after administration. Animal blood collection time points were as follows: before administration, and 5 min, 15 min, 30 min, 1 h, 2 h, 4 h, 6 h, 8 h, and 24 h after administration for intravenous administration; before administration, and 15 min, 30 min, 1 h, 2 h, 4 h, 6 h, 8 h and 24 h after administration for oral administration. About 0.25 mL of blood was collected via the jugular vein from each animal, and heparin sodium was used for anticoagulation. After collecting the blood samples, the blood samples were placed on ice and centrifuged to separate the plasma (centrifugation conditions: 8000 rpm, 6 min, 4° C.). The collected plasma was stored at −80° C. before analysis. 50 μL of plasma sample was taken into 1.5 mL of centrifuge tube, 250 μL of internal standard solution was added, and the same volume of methanol rather than internal standard solution was added in the blank group. The mixture was vortexed and mixed, centrifuged at 14,000 rpm for 5 min, 200 μL of supernatant was taken into 96-well sample plate, and the LC-MS/MS was used for sample analysis. In the linear regression analysis, the peak area was taken as the y-axis and the drug concentration was taken as the x-axis. The linear relationship between the peak area ratio and the concentration was expressed by the correlation coefficient (R) obtained from the regression equation of the compound. According to the blood concentration data of the drug, the pharmacokinetic calculation software WinNonlin7.0 non-compartmental model was used to calculate the pharmacokinetic parameters of the test drug.
Internal standard working solution: a certain amount of tolbutamide internal standard stock solution with a concentration of 490,000 ng/mL was taken into a volumetric flask with a certain volume, diluted to a desired volume with methanol and mixed well to obtain the internal standard working solution with a concentration of 200 ng/mL.

Structure (SMILES) | number of appearance of writhing reaction ([1]; 10 mg/kg by gavage) [times] | IC50 (human TRPA1 channel) [nM] | bioavailability ([3]; male, SD, plasma, 10 mg/kg) [%] | AUC(0-inf) ([3]; male, SD, plasma, IV 2 mg/kg) [ng·h/mL] | Cmax ([3]; male, SD, plasma, IV 2 mg/kg) [ng/mL] | half-life ([3]; male, SD, plasma, IV 2 mg/kg) [min] | AUC(0-inf) ([3]; male, SD, plasma, PO 10 mg/kg) [ng·h/mL] | Cmax ([3]; male, SD, plasma, PO 10 mg/kg) [ng/mL] | half-life ([3]; male, SD, plasma, PO 10 mg/kg) [min] | also measured
CNCC[C@H](Oc1cccc2ccoc12)c1cccs1 [Compound IC-1, (S)-3-(benzofuran-7-yloxy)-N-methyl-3-(thiophen-2-yl)propyl-1-amine] | 17 | 430 | 179 | 449 | 170 | 178 | 4020 | 266 | 341 | writhing number lower than in the saline control group ([1]; 5 mg/kg by gavage): 50%; number of appearance of writhing reaction ([1]; 5 mg/kg by gavage): 20 times; half effective dose ([1]; acetic acid writhing, gavage): less than 5 mg/kg; ratio of IC50 of S configuration of duloxetine to IC50 of the compound, manual patch clamp (human TRPA1 channel; manual patch clamp): 10.14; decrease of licking time as compared with blank Vehicle ([2]; 1 mg/kg, phase II (10-60 min)): more than 50%; Tmax ([3]; male, SD, plasma, IV 2 mg/kg, read-out: Tmax): 4.98 min; Tmax ([3]; male, SD, plasma, PO 10 mg/kg, read-out: Tmax): 180 min
CNCC[C@H](Oc1cccc2ccccc12)c1cccs1 [Duloxetine (S configuration), Duloxetine] | 27 | 4360 | 9.9 | 449 | 177 | 106 | 222 | 76 | 109 | number of appearance of writhing reaction ([1]; 20 mg/kg by gavage): 21 times; Licking time ([2]; 1 mg/kg intraperitoneal): 259.97 ± 64.44 s; Licking time ([2]; 5 mg/kg intraperitoneal): 230.49 ± 41.31 s; Licking time ([2]; 10 mg/kg intraperitoneal): 162.83 ± 36.27 s; Licking time ([2]; 20 mg/kg intraperitoneal): 72.27 ± 17.29 s; ED50 ([2]; Mus musculus, ip, intraperitoneal, phase II (10-60 min), dose that decreased licking time by half): 8 mg/kg; Tmax ([3]; PO 10 mg/kg, 10 mg/kg): 50 min; Tmax ([3]; male, SD, plasma, iv, 2 mg/kg, IV 2 mg/kg, read-out: Tmax): 4.98 min; Tmax ([3]; male, SD, plasma, po, 10 mg/kg, PO 10 mg/kg, read-out: Tmax): 49.8 min
